Patent US20230310428A1, “EGFR INHIBITOR AND PREPARATION METHOD AND USE THEREOF” (HONGYUN BIOTECH CO., LTD., priority 2020, published 2023)
Like-named read-outs stand apart in the source and are kept apart here.

Legend:
Test in all cases: Growth inhibitory activity of compounds on BaF3 cell lines stably transfected with kinase (MTS, 48 h)
Assay type in all cases: cell-based
[1] = molecular target: T1, various mutants of kinase EGFR (BaF3 cell lines stably transfected with kinase) (Homo sapiens, UniProt P00533)
T1 construct: other: BaF3 cells stably transfected with EGFR Δ19Del; MTS, 48 h; other: BaF3 cell line stably transfected with EGFR Δ19Del
T1 sequence (P00533 with tags, fused parts or gaps DEL746-750): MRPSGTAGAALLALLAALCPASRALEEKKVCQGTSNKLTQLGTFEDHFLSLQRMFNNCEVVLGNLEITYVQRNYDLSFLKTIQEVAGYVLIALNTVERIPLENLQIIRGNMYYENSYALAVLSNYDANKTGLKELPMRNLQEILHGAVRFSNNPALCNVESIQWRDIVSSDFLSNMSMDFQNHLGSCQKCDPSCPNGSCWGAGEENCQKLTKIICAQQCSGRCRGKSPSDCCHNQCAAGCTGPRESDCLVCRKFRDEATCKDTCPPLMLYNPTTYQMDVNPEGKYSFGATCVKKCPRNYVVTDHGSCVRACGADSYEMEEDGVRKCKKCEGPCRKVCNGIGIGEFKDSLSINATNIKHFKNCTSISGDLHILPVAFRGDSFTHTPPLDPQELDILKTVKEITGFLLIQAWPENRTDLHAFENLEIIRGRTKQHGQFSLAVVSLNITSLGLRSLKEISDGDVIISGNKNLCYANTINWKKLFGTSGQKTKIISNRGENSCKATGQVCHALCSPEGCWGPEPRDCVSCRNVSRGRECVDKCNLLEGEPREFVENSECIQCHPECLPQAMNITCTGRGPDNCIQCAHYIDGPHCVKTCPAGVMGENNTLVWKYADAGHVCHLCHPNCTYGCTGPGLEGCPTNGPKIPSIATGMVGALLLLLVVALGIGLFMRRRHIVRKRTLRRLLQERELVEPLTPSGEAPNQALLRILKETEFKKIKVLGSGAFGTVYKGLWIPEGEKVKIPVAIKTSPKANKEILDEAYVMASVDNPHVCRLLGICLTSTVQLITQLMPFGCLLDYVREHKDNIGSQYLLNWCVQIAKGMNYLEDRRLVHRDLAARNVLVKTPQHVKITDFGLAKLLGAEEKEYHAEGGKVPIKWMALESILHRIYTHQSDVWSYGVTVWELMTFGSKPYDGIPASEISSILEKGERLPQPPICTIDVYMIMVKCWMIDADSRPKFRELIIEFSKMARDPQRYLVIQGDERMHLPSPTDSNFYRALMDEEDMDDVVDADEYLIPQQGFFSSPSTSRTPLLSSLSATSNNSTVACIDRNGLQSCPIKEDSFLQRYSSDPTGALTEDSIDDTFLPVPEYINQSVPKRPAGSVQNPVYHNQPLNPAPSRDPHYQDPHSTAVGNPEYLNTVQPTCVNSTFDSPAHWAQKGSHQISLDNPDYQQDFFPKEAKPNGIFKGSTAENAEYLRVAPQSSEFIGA
Experimental: (§1) The activity of compounds against various mutants of kinase EGFR was evaluated by their effect of inhibiting growth of BaF3 cell lines stably transfected with kinase. The specific test method was given as follows:
(§2) 1) Culture medium: DMEM (Dulbecco’s modified eagle medium) or RPMI 1640 (containing 10% fetal bovine serum, 100 µg/mL ampicillin, 100 µg/mL streptomycin).
(§3) 2) Reagent: MTS reaction solution (containing 2 mg/mL of MTS [3-(4,5-dimethylthiazol-2-yl)-5-(3-carboxymethoxyphenyl)-2-(4-sulfophenyl)-2H-tetrazoliu m, inner Salt]; 100 µg/mL of PES ([…])).
(§4) 3) Compound test: cells were incubated into a 96-well culture plate, the volume of cytosol was 90 µL, and then 10 µL of the compound at each gradient concentration was added. That is, the highest concentration was 10 µM, which was diluted stepwise by ⅓, and 8 concentration points were set in total; 0.1% DMSO (dimethyl sulfoxide) was contained in the system. The cell plate with uniformly mixed compound was cultured in a cell culture incubator (37° C.; 5% CO2) for 48 h, then 20 µL of MTS reaction solution was added, uniformly mixed and incubated in the cell culture incubator (37° C.; 5% CO2) for 1-4 h. OD values at 490 nm were measured by a microplate reader (VARIOSKAN FLASH, Thermo). Two parallels were set in each group of experiments, with 0.1% (a final concentration) DMSO as a negative control, and a culture medium without cells and compounds as a blank control. The cell growth inhibition rate was calculated by the following formula: […]
(§5) 4) IC50 calculation: The semi-inhibitory concentration of the compounds acting on cells was calculated using GradPad Prism 5 software according to the measured cell growth inhibition rate.

[2] = molecular target: T2, various mutants of kinase EGFR (BaF3 cell lines stably transfected with kinase) (Homo sapiens, UniProt P00533, C797S/L858R/T790M)
T2 construct: expressed in transfected cells; host or cells: BaF3
Experimental: as §1, §2, §3, §4, §5

[3] = molecular target: T3, various mutants of kinase EGFR (BaF3 cell lines stably transfected with kinase) (Homo sapiens, UniProt P00533, L858R)
T3 construct: expressed in transfected cells; host or cells: BaF3
T3 sequence (P00533 25-1210 L858R): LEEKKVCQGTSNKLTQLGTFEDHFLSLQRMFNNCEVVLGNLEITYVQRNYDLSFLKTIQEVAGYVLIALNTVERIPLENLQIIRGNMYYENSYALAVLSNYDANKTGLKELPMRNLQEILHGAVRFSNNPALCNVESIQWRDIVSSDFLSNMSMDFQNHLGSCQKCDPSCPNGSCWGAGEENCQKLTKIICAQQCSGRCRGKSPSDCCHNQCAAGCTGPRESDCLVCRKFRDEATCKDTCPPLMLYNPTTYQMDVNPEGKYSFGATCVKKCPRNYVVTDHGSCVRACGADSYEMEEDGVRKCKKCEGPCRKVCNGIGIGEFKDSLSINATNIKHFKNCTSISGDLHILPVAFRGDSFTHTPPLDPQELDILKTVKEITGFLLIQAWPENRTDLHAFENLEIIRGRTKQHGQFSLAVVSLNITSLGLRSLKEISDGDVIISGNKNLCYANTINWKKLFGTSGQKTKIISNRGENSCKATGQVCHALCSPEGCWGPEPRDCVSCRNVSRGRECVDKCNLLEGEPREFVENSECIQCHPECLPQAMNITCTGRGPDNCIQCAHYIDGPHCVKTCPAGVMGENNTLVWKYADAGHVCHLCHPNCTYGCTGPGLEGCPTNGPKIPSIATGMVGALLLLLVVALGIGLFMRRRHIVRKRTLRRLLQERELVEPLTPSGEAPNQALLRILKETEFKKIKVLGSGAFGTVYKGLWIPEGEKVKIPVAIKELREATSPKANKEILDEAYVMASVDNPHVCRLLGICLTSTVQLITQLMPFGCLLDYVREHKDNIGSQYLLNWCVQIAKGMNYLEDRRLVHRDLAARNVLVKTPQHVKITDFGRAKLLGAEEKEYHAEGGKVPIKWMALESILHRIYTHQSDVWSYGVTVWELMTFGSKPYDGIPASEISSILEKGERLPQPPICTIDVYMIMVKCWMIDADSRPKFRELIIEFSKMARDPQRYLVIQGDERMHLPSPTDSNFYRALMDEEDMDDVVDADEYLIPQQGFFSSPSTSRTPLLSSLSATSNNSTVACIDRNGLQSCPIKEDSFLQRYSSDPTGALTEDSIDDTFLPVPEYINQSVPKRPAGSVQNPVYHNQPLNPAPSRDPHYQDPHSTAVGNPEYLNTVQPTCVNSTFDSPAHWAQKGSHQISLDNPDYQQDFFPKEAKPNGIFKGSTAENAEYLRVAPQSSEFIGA
Experimental: as §1, §2, §3, §4, §5

[4] = molecular target: T4, various mutants of kinase EGFR (BaF3 cell lines stably transfected with kinase) (Homo sapiens, UniProt P00533, L858R/T790M)
T4 construct: expressed in transfected cells; host or cells: BaF3
T4 sequence (P00533 25-1210 T790M/L858R): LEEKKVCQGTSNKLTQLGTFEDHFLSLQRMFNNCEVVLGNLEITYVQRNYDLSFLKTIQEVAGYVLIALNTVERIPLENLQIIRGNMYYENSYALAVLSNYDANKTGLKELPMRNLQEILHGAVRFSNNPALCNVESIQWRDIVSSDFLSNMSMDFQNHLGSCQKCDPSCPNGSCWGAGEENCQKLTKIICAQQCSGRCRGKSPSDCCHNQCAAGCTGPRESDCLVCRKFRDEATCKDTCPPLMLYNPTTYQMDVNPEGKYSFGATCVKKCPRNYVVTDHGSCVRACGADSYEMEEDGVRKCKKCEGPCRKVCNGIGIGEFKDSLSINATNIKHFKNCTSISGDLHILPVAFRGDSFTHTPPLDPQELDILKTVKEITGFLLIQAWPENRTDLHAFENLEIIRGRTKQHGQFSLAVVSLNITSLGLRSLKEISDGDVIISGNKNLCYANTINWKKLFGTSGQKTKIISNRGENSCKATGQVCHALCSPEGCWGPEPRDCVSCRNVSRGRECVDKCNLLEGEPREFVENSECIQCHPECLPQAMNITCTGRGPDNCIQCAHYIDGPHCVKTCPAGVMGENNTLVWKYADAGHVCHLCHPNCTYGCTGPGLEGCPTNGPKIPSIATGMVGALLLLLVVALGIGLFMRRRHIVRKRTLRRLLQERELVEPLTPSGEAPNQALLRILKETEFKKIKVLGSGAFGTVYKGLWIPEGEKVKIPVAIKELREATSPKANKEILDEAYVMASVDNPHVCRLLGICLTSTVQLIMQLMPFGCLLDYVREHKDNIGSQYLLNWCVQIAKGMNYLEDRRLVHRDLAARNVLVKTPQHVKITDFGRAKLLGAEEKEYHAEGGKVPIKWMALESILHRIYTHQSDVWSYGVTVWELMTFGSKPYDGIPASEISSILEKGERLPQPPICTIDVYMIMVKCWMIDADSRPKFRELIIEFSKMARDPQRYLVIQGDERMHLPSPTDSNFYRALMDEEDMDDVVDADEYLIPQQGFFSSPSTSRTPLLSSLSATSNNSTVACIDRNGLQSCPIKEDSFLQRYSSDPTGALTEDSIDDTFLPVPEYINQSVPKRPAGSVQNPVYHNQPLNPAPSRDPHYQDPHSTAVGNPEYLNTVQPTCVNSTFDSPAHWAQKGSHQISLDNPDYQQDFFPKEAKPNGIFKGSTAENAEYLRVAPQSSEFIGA
Experimental: as §1, §2, §3, §4, §5

[5] = molecular target: T5, various mutants of kinase EGFR (BaF3 cell lines stably transfected with kinase) (Homo sapiens, UniProt P00533, T790M/C797S, form not given)
T5 construct: other: BaF3 cells stably transfected with EGFR Δ19Del/T790M/C797S; MTS, 48; other: BaF3 cell line stably transfected with EGFR Δ19Del/T790M/C7
Experimental: as §1, §2, §3, §4, §5

[6] = molecular target: T6, various mutants of kinase EGFR (BaF3 cell lines stably transfected with kinase) (Homo sapiens, UniProt P00533, T790M, form not given)
T6 construct: other: BaF3 cells stably transfected with EGFR Δ19Del/T790M; MTS, 48 h; other: BaF3 cell line stably transfected with EGFR Δ19Del/T790M; MTS, 48
T6 sequence (P00533 with tags, fused parts or gaps DEL746-750/T790M, form open): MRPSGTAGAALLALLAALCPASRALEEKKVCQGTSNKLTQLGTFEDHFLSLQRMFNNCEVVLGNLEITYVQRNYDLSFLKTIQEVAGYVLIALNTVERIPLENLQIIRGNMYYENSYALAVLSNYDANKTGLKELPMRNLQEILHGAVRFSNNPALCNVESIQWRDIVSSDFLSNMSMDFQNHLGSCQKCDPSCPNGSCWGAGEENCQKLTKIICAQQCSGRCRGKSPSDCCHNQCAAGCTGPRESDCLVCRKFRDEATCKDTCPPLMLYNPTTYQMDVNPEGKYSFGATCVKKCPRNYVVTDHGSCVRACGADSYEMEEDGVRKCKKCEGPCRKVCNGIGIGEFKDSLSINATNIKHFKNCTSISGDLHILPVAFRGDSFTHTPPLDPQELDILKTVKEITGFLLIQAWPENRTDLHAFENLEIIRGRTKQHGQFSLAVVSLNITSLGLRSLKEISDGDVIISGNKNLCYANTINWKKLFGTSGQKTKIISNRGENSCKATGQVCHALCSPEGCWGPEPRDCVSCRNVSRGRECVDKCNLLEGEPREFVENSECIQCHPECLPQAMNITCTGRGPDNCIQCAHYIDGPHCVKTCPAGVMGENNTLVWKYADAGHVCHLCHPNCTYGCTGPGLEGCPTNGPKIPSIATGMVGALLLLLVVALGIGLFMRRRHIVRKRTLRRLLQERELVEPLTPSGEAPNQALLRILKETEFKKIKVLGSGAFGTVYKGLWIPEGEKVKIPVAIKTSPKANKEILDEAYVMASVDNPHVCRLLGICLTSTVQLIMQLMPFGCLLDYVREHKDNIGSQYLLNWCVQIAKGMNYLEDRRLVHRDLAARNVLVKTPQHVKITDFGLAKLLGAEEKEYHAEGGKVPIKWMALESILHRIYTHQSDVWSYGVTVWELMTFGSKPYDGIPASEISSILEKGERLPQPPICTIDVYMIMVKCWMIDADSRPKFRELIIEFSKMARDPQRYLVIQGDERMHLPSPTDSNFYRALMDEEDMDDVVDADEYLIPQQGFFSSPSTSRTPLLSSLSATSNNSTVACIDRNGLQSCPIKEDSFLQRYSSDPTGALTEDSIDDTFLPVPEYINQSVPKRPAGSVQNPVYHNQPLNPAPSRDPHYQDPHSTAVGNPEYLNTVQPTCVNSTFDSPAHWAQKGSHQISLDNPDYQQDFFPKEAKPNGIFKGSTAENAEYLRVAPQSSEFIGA
Experimental: as §1, §2, §3, §4, §5

[7] = BaF3 cells stably transfected with EGFR Δ19Del, read-out: IC50, growth inhibition, Δ19Del
[8] = BaF3 cells stably transfected with EGFR L858R/T790M/C797S, read-out: IC50, growth inhibition, L858R/T790M/C797S
[9] = BaF3 cells stably transfected with EGFR L858R, read-out: IC50, growth inhibition, L858R
[10] = BaF3 cells stably transfected with EGFR L858R/T790M, read-out: IC50, growth inhibition, L858R/T790M
[11] = BaF3 cells stably transfected with EGFR Δ19Del/T790M/C797S, read-out: IC50, growth inhibition, Δ19Del/T790M/C797S
[12] = BaF3 cells stably transfected with EGFR Δ19Del/T790M, read-out: IC50, growth inhibition, Δ19Del/T790M
[13] = BaF3 cell line stably transfected with EGFR Δ19Del, read-out: Δ19Del growth inhibitory activity IC50
[14] = BaF3 cell line stably transfected with EGFR L858R/T790M/C797S, read-out: L858R/T790M/ C797S growth inhibitory activity IC50
[15] = BaF3 cell line stably transfected with EGFR L858R, read-out: L858R growth inhibitory activity IC50
[16] = BaF3 cell line stably transfected with EGFR L858R/T790M, read-out: L858R/ T790M growth inhibitory activity IC50
[17] = BaF3 cell line stably transfected with EGFR Δ19Del/T790M/C797S, read-out: Δ19Del/T790M/ C797S growth inhibitory activity IC50
[18] = BaF3 cell line stably transfected with EGFR Δ19Del/T790M, read-out: Δ19Del/ T790M growth inhibitory activity IC50

SMILES | IC50 [1, 7] [nM] | IC50 [2, 8] [nM] | IC50 [3, 9] [nM] | IC50 [4, 10] [nM] | IC50 [5, 11] [nM] | IC50 [6, 12] [nM] | IC50 [1, 13] [nM] | IC50 [2, 14] [nM] | IC50 [3, 15] [nM] | IC50 [4, 16] [nM] | IC50 [5, 17] [nM] | IC50 [6, 18] [nM]
COc1cc(N2CCOCC2)ccc1Nc1ncc(Br)c(Nc2ccc3nccnc3c2N(C)S(C)(=O)=O)n1 [Compound I-45] | 50 to 500 | ≤ 50 | 50 to 500 | 50 to 500 | ≤ 50 | 50 to 500 | – | – | – | – | – | –
CCc1cc(Nc2ncc(C)c(Nc3ccc4nccnc4c3N(C)S(C)(=O)=O)n2)c(OC)cc1N1CCC(N(C)C)CC1 [Compound I-279] | ≤ 50 | ≤ 50 | ≤ 50 | ≤ 50 | ≤ 50 | ≤ 50 | – | – | – | – | – | –
CCc1cc(Nc2ncc(Cl)c(Nc3ccc4nccnc4c3N(C3CC3)S(C)(=O)=O)n2)c(OC(F)(F)F)cc1N1CCC(N2CCN(C)CC2)CC1 [Compound I-161] | 50 to 500 | 50 to 500 | 50 to 500 | 50 to 500 | 50 to 500 | 50 to 500 | – | – | – | – | – | –
CCc1cc(Nc2ncc(C(C)C)c(Nc3ccc4nccnc4c3N(C)S(C)(=O)=O)n2)c(OC)cc1N1CCC(N(C)C)C1 (stereo not drawn) [Compound I-331] | – | – | – | – | – | – | 50 to 500 | ≤ 50 | 50 to 500 | 50 to 500 | ≤ 50 | ≤ 50
COc1cc(N2CCC(N3CCN(C)CC3)CC2)c(C)cc1Nc1ncc(Cl)c(Nc2ccc3nccnc3c2N(C)S(=O)(=O)C(F)(F)F)n1 [Compound I-129] | 500 to 2500 | 50 to 500 | 500 to 2500 | 500 to 2500 | 50 to 500 | 50 to 500 | – | – | – | – | – | –
CCc1cc(Nc2ncc(OC)c(Nc3ccc4nccnc4c3N(C)S(C)(=O)=O)n2)c(OC)cc1N1CCC(N(C)C)CC1 [Compound I-282] | ≤ 50 | ≤ 50 | ≤ 50 | ≤ 50 | ≤ 50 | ≤ 50 | – | – | – | – | – | –
C=Cc1cc(Nc2nc(Nc3ccc4nccnc4c3N(C)S(C)(=O)=O)c3[nH]ccc3n2)c(OC(F)(F)F)cc1N1CCC(N2CCN(C)CC2)CC1 [II-1-23] | – | – | – | – | – | – | 50 to 500 | 50 to 500 | 50 to 500 | 50 to 500 | ≤ 50 | 50 to 500
COc1cc(N2CCC(N3CCN(C)CC3)CC2)c(C)cc1Nc1nc(Nc2ccc3nccnc3c2N(C)S(C)(=O)=O)c2cc[nH]c2n1 [II-2-5] | – | – | – | – | – | – | 50 to 500 | ≤ 50 | 50 to 500 | ≤ 50 | ≤ 50 | ≤ 50
COc1ccc(N2CCC(O)CC2)cc1Nc1nc(Nc2ccc3nccnc3c2N(C)S(C)(=O)=O)c2sccc2n1 [II-1-45] | – | – | – | – | – | – | 500 to 2500 | 50 to 500 | 50 to 500 | 50 to 500 | ≤ 50 | 50 to 500
COc1cc2c(cc1Nc1ncc(Br)c(Nc3ccc4nccnc4c3N(C)S(C)(=O)=O)n1)CN(C)CC2 [Compound I-89] | 500 to 2500 | 50 to 500 | 50 to 500 | 50 to 500 | 500 to 2500 | 50 to 500 | – | – | – | – | – | –
COc1cc(N2CCC(N3CCN(C)CC3)CC2)c(C(C)C)cc1Nc1nccc(Nc2ccc3nccnc3c2N(C)S(C)(=O)=O)n1 [Compound I-342] | – | – | – | – | – | – | 50 to 500 | 500 to 2500 | 50 to 500 | 50 to 500 | 500 to 2500 | 50 to 500
Cc1cc(Nc2ncc(Br)c(Nc3ccc4nccnc4c3N(C)S(C)(=O)=O)n2)c(OC(C)C)cc1C1CCN(C)CC1 [Compound I-37] | 500 to 2500 | 50 to 500 | 500 to 2500 | 50 to 500 | ≤ 50 | 50 to 500 | – | – | – | – | – | –

More lines, now with the values ahead:

IC50 [1, 7] [nM] | IC50 [2, 8] [nM] | IC50 [3, 9] [nM] | IC50 [4, 10] [nM] | IC50 [5, 11] [nM] | IC50 [6, 12] [nM] | IC50 [1, 13] [nM] | IC50 [2, 14] [nM] | IC50 [3, 15] [nM] | IC50 [4, 16] [nM] | IC50 [5, 17] [nM] | IC50 [6, 18] [nM] | SMILES
50 to 500 | 50 to 500 | 50 to 500 | 50 to 500 | ≤ 50 | 50 to 500 | – | – | – | – | – | – | CCS(=O)(=O)N(C)c1c(Nc2nc(Nc3ccc(N4CCC(N5CCN(C)CC5)CC4)cc3OC)ncc2Cl)ccc2nccnc12 [Compound I-294]
50 to 500 | 50 to 500 | 50 to 500 | 50 to 500 | 500 to 2500 | 50 to 500 | – | – | – | – | – | – | CCN(c1c(Nc2nc(Nc3ccc(N4CCC(N5CCN(C)CC5)CC4)nc3OC)ncc2Br)ccc2nccnc12)S(C)(=O)=O [Compound I-296]
50 to 500 | 50 to 500 | 50 to 500 | 50 to 500 | 50 to 500 | 50 to 500 | – | – | – | – | – | – | COc1cc(N2CCC(N3CCN(C)CC3)CC2)c(C)cc1Nc1ncc(C#N)c(Nc2ccc3nccnc3c2N(C)S(C)(=O)=O)n1 [Compound I-28]
500 to 2500 | 50 to 500 | 50 to 500 | 50 to 500 | 50 to 500 | 500 to 2500 | – | – | – | – | – | – | COc1nc(N2CCC(N3CCN(C)CC3)CC2)ccc1Nc1ncc(Cl)c(Nc2ccc3nccnc3c2N(C)S(C)(=O)=O)n1 [Compound I-164]
500 to 2500 | 50 to 500 | 500 to 2500 | 50 to 500 | ≤ 50 | 50 to 500 | – | – | – | – | – | – | COc1cc(N2CCC(N3CCN(C)CC3)CC2)c(C)cc1Nc1ncc(Br)c(Nc2ccc3nccnc3c2N(C)S(=O)(=O)C(F)(F)F)n1 [Compound I-124]
500 to 2500 | 50 to 500 | 500 to 2500 | 50 to 500 | 50 to 500 | 50 to 500 | – | – | – | – | – | – | COc1cc(N2CCC(N3CCN(C)CC3)CC2)ccc1Nc1ncc(Cl)c(Nc2ccc3nccnc3c2N(C)S(=O)(=O)C(F)(F)F)n1 [Compound I-261]
– | – | – | – | – | – | ≤ 50 | ≤ 50 | ≤ 50 | ≤ 50 | 50 to 500 | ≤ 50 | CCc1cc(Nc2ncc(C#N)c(Nc3ccc4nccnc4c3N(C)S(C)(=O)=O)n2)ccc1N1CCC(N2CCN(C)CC2)CC1 [Compound I-346]
– | – | – | – | – | – | 50 to 500 | ≤ 50 | ≤ 50 | ≤ 50 | ≤ 50 | ≤ 50 | CCc1cc(Nc2ncc(Br)c(Nc3ccc4nccnc4c3N(C3CC3)S(C)(=O)=O)n2)c(OC)cc1N1CCN(C)CC1 [Compound I-310]
50 to 500 | ≤ 50 | 50 to 500 | ≤ 50 | ≤ 50 | ≤ 50 | – | – | – | – | – | – | COc1cc(N2CCN(C)CC2)ccc1Nc1ncc(Br)c(Nc2ccc3nccnc3c2N(C)S(C)(=O)=O)n1 [Compound I-38]
≤ 50 | ≤ 50 | ≤ 50 | ≤ 50 | ≤ 50 | ≤ 50 | – | – | – | – | – | – | CCS(=O)(=O)N(C)c1c(Nc2nc(Nc3cc(C)c(N4CCC(N5CCN(C)CC5)CC4)cc3OC)ncc2Br)ccc2nccnc12 [Compound I-99]
50 to 500 | ≤ 50 | 50 to 500 | 50 to 500 | ≤ 50 | ≤ 50 | – | – | – | – | – | – | C=Cc1cc(Nc2ncc(Br)c(Nc3ccc4nccnc4c3N(CC)S(C)(=O)=O)n2)c(OC(F)(F)F)cc1N1CCC(N2CCN(C)CC2)CC1 [Compound I-298]
